Our source for the IC50 values is patent publication US7291622B2, “Medical uses of carbamate-substituted pyrazolo-pyridine derivatives” (Bayer Aktiengesellschaft, priority 2000, dated 2007).

The subject of this experiment is rabbit aorta rings. Briefly: Vasorelaxant effect in vitro (phenylephrine-contracted rabbit aorta rings). The conditions noted are these: Oryctolagus cuniculus; rabbit aortic rings, phenylephrine contraction; concentration reducing height of control contraction by 50%. How it is done:
Vasorelaxant Effect In Vitro
Rabbits are stunned by a blow to the back of the neck and are exsanguinated. The aorta is removed, freed of adherent tissue and divided into rings 1.5 mm wide, which are put singly under tension in 5 ml organ baths containing carbogen-gassed Krebs-Henseleit solution at 37° C. with the following composition (mM): NaCl: 119; KCl: 4.8; CaCl2×2H2O: 1; MgSO4×7H2O: 1.4; KH2PO4: 1.2; NaHCO3: 25; glucose: 10. The force of contraction is detected with Statham UC2 cells, amplified and digitized via A/D converters (DAS-1802 HC, Keithley Instruments Munich) and recorded in parallel on chart recorders. A contraction is generated by adding phenylephrine to the bath cumulatively in increasing concentration. After several control cycles, the substance to be investigated is investigated in each further run in increasing dosage in each case, and the height of the contraction is compared with the height of the contraction reached in the last preceding run. The concentration necessary to reduce the height of the control value by 50% (IC50) is calculated from this. The standard application volume is 5 μl, and the DMSO content in the bath solution corresponds to 0.1%.

Broadly, the IC50 is the midpoint of a concentration-inhibition curve. Low readings indicate greater potency, high ones weaker potency. In the case of `CCOC(=O)CN(C(=O)Oc1cnc(-c2nn(Cc3ccccc3F)c3ncccc23)nc1N)C(C)COC` (centres unmarked) [Example 15], the IC50 came out at 320 nM. As for `CN(C)C(=S)Oc1cnc(-c2nn(Cc3ccccc3F)c3ncccc23)nc1N` [Example 19], the figure is 420 nM; as for `Nc1nc(-c2nn(Cc3ccccc3F)c3ncccc23)ncc1CC(=O)N1CCOCC1` [Example 2], 650 nM. As for `C=CCN(CC=C)C(=O)Oc1cnc(-c2nn(Cc3ccccc3F)c3ncccc23)nc1N` [Example 11], the figure is 520 nM. As for `CCN(CC)C(=O)Nc1nc(-c2nn(Cc3ccccc3F)c3ncccc23)ncc1OC(=O)N(CC)CC` [Example 26, 4-{[(Diethylamino)carbonyl]amino}-2-[1-(2-fluorobenzyl)-1H-pyrazolo[3,4-b]pyridin-3-yl]-5-pyrimidinyl diethylcarbamate], the figure is 340 nM.
